Data reported in PubChem BioAssay (NCI).
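Following 48 hours of exposure in 96-well plates, responses at five concentrations were used to interpolate endpoints linearly. Abbreviation: GI50, concentration required for 50% inhibition of growth. TGI denotes the concentration required for complete inhibition of growth.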

What was measured:
Test in all cases: growth of human tumour cells (NCI), 48 h
786-0 renal = test system: 786-0 renal
A498 renal = test system: A498 renal
A549 NSCLC = test system: A549 NSCLC
ACHN renal = test system: ACHN renal
BT-549 breast = test system: BT-549 breast
CAKI-1 renal = test system: CAKI-1 renal
CCRF-CEM leukemia = test system: CCRF-CEM leukemia
COLO 205 colon = test system: COLO 205 colon
DU-145 prostate = test system: DU-145 prostate
HCC-2998 colon = test system: HCC-2998 colon
HCT-116 colon = test system: HCT-116 colon
HCT-15 colon = test system: HCT-15 colon
HL-60(TB) leukemia = test system: HL-60(TB) leukemia
HOP-62 NSCLC = test system: HOP-62 NSCLC
HOP-92 NSCLC = test system: HOP-92 NSCLC
HS 578T breast = test system: HS 578T breast
HT29 colon = test system: HT29 colon
IGROV1 ovarian = test system: IGROV1 ovarian
K-562 leukemia = test system: K-562 leukemia
KM12 colon = test system: KM12 colon
LOX IMVI melanoma = test system: LOX IMVI melanoma
M14 melanoma = test system: M14 melanoma
MALME-3M melanoma = test system: MALME-3M melanoma
MCF7 breast = test system: MCF7 breast
MDA-MB-231 breast = test system: MDA-MB-231 breast
MDA-MB-435 = test system: MDA-MB-435
MOLT-4 leukemia = test system: MOLT-4 leukemia
NCI-H226 lung = test system: NCI-H226 lung
NCI-H23 lung = test system: NCI-H23 lung
NCI-H460 lung = test system: NCI-H460 lung
NCI-H522 lung = test system: NCI-H522 lung
NCI/ADR-RES ovarian = test system: NCI/ADR-RES ovarian
OVCAR-3 ovarian = test system: OVCAR-3 ovarian
OVCAR-4 ovarian = test system: OVCAR-4 ovarian
OVCAR-5 ovarian = test system: OVCAR-5 ovarian
OVCAR-8 ovarian = test system: OVCAR-8 ovarian
PC-3 prostate = test system: PC-3 prostate
RPMI-8226 leukemia = test system: RPMI-8226 leukemia
RXF 393 renal = test system: RXF 393 renal
SF-268 CNS = test system: SF-268 CNS
SF-295 CNS = test system: SF-295 CNS
SF-539 CNS = test system: SF-539 CNS
SK-MEL-2 melanoma = test system: SK-MEL-2 melanoma
SK-MEL-28 melanoma = test system: SK-MEL-28 melanoma
SK-MEL-5 melanoma = test system: SK-MEL-5 melanoma
SK-OV-3 ovarian = test system: SK-OV-3 ovarian
SN12C renal = test system: SN12C renal
SNB-19 CNS = test system: SNB-19 CNS
SNB-75 CNS = test system: SNB-75 CNS
SR leukemia = test system: SR leukemia
SW-620 colon = test system: SW-620 colon
T-47D breast = test system: T-47D breast
TK-10 renal = test system: TK-10 renal
U251 CNS = test system: U251 CNS
UACC-257 melanoma = test system: UACC-257 melanoma
UACC-62 melanoma = test system: UACC-62 melanoma
UO-31 renal = test system: UO-31 renal

How did the GI50 (786-0 renal) turn out when `CC(C)(O)Cn1c(=O)c(Oc2ccc(F)cc2F)cc2cnc(NC3CCOCC3)nc21` was run?
Its GI50 is > 25 µM.

What about the TGI (786-0 renal) of the same compound?
The TGI was > 25 µM.

And the GI50 (A498 renal)?
Its GI50 is > 14.7 µM.

What about the TGI (A498 renal) of the same compound?
The TGI was > 25 µM.

What about the GI50 (A549 NSCLC) of the same compound?
Its GI50 is > 25 µM.

What about the TGI (A549 NSCLC) of the same compound?
Its TGI is > 25 µM.

What about the GI50 (ACHN renal) of the same compound?
Its GI50 is > 25 µM.

What about the TGI (ACHN renal) of the same compound?
The TGI was > 25 µM.

What about the GI50 (BT-549 breast) of the same compound?
Its GI50 is > 25 µM.

And the TGI (BT-549 breast)?
Its TGI is > 25 µM.

And the GI50 (CAKI-1 renal)?
Its GI50 is > 25 µM.

What about the TGI (CAKI-1 renal) of the same compound?
The TGI was > 25 µM.

And the GI50 (CCRF-CEM leukemia)?
The GI50 was > 25 µM.

What about the TGI (CCRF-CEM leukemia) of the same compound?
The TGI was > 25 µM.

And the GI50 (COLO 205 colon)?
Its GI50 is > 25 µM.

What about the TGI (COLO 205 colon) of the same compound?
Its TGI is > 25 µM.

And the GI50 (DU-145 prostate)?
Its GI50 is > 25 µM.

What about the TGI (DU-145 prostate) of the same compound?
The TGI was > 25 µM.

And the GI50 (HCC-2998 colon)?
Its GI50 is > 25 µM.

What about the TGI (HCC-2998 colon) of the same compound?
The TGI was > 25 µM.

And the GI50 (HCT-116 colon)?
Its GI50 is > 25 µM.

And the TGI (HCT-116 colon)?
Its TGI is > 25 µM.

And the GI50 (HCT-15 colon)?
The GI50 was > 25 µM.

And the TGI (HCT-15 colon)?
The TGI was > 25 µM.

And the GI50 (HL-60(TB) leukemia)?
The GI50 was > 25 µM.

What about the TGI (HL-60(TB) leukemia) of the same compound?
Its TGI is > 25 µM.

What about the GI50 (HOP-62 NSCLC) of the same compound?
The GI50 was > 25 µM.

What about the TGI (HOP-62 NSCLC) of the same compound?
The TGI was > 25 µM.

And the GI50 (HOP-92 NSCLC)?
The GI50 was 7.79 µM.

And the TGI (HOP-92 NSCLC)?
The TGI was > 25 µM.

And the GI50 (HS 578T breast)?
Its GI50 is > 25 µM.

What about the TGI (HS 578T breast) of the same compound?
The TGI was > 25 µM.

And the GI50 (HT29 colon)?
The GI50 was > 25 µM.

And the TGI (HT29 colon)?
The TGI was > 25 µM.

What about the GI50 (IGROV1 ovarian) of the same compound?
The GI50 was > 25 µM.

And the TGI (IGROV1 ovarian)?
The TGI was > 25 µM.

And the GI50 (K-562 leukemia)?
Its GI50 is > 25 µM.

And the TGI (K-562 leukemia)?
The TGI was > 25 µM.

And the GI50 (KM12 colon)?
The GI50 was > 25 µM.

What about the TGI (KM12 colon) of the same compound?
The TGI was > 25 µM.

What about the GI50 (LOX IMVI melanoma) of the same compound?
Its GI50 is > 25 µM.

And the TGI (LOX IMVI melanoma)?
Its TGI is > 25 µM.

What about the GI50 (M14 melanoma) of the same compound?
Its GI50 is > 25 µM.

And the TGI (M14 melanoma)?
The TGI was > 25 µM.

And the GI50 (MALME-3M melanoma)?
Its GI50 is > 25 µM.

And the TGI (MALME-3M melanoma)?
Its TGI is > 25 µM.

And the GI50 (MCF7 breast)?
Its GI50 is > 25 µM.

And the TGI (MCF7 breast)?
Its TGI is > 25 µM.

And the GI50 (MDA-MB-231 breast)?
The GI50 was > 25 µM.

And the TGI (MDA-MB-231 breast)?
The TGI was > 25 µM.

What about the GI50 (MDA-MB-435) of the same compound?
The GI50 was > 25 µM.

What about the TGI (MDA-MB-435) of the same compound?
The TGI was > 25 µM.

What about the GI50 (MOLT-4 leukemia) of the same compound?
The GI50 was > 25 µM.

And the TGI (MOLT-4 leukemia)?
The TGI was > 25 µM.

And the GI50 (NCI-H226 lung)?
The GI50 was > 25 µM.

What about the TGI (NCI-H226 lung) of the same compound?
The TGI was > 25 µM.

And the GI50 (NCI-H23 lung)?
The GI50 was > 25 µM.

What about the TGI (NCI-H23 lung) of the same compound?
Its TGI is > 25 µM.

And the GI50 (NCI-H460 lung)?
The GI50 was > 25 µM.

And the TGI (NCI-H460 lung)?
Its TGI is > 25 µM.

And the GI50 (NCI-H522 lung)?
Its GI50 is > 25 µM.

And the TGI (NCI-H522 lung)?
Its TGI is > 25 µM.

What about the GI50 (NCI/ADR-RES ovarian) of the same compound?
The GI50 was > 25 µM.

And the TGI (NCI/ADR-RES ovarian)?
Its TGI is > 25 µM.

And the GI50 (OVCAR-3 ovarian)?
The GI50 was > 25 µM.

What about the TGI (OVCAR-3 ovarian) of the same compound?
The TGI was > 25 µM.

What about the GI50 (OVCAR-4 ovarian) of the same compound?
The GI50 was > 25 µM.

And the TGI (OVCAR-4 ovarian)?
Its TGI is > 25 µM.

What about the GI50 (OVCAR-5 ovarian) of the same compound?
The GI50 was > 25 µM.

What about the TGI (OVCAR-5 ovarian) of the same compound?
The TGI was > 25 µM.

And the GI50 (OVCAR-8 ovarian)?
The GI50 was > 25 µM.

And the TGI (OVCAR-8 ovarian)?
Its TGI is > 25 µM.

And the GI50 (PC-3 prostate)?
Its GI50 is > 25 µM.

What about the TGI (PC-3 prostate) of the same compound?
Its TGI is > 25 µM.

What about the GI50 (RPMI-8226 leukemia) of the same compound?
The GI50 was > 25 µM.

And the TGI (RPMI-8226 leukemia)?
Its TGI is > 25 µM.

And the GI50 (RXF 393 renal)?
The GI50 was > 25 µM.

And the TGI (RXF 393 renal)?
Its TGI is > 25 µM.

And the GI50 (SF-268 CNS)?
Its GI50 is > 25 µM.

What about the TGI (SF-268 CNS) of the same compound?
Its TGI is > 25 µM.

And the GI50 (SF-295 CNS)?
Its GI50 is > 25 µM.

And the TGI (SF-295 CNS)?
Its TGI is > 25 µM.

What about the GI50 (SF-539 CNS) of the same compound?
Its GI50 is > 25 µM.

What about the TGI (SF-539 CNS) of the same compound?
Its TGI is > 25 µM.

What about the GI50 (SK-MEL-2 melanoma) of the same compound?
The GI50 was > 25 µM.

What about the TGI (SK-MEL-2 melanoma) of the same compound?
The TGI was > 25 µM.

And the GI50 (SK-MEL-28 melanoma)?
The GI50 was > 25 µM.

What about the TGI (SK-MEL-28 melanoma) of the same compound?
The TGI was > 25 µM.

What about the GI50 (SK-MEL-5 melanoma) of the same compound?
Its GI50 is > 25 µM.

And the TGI (SK-MEL-5 melanoma)?
The TGI was > 25 µM.

And the GI50 (SK-OV-3 ovarian)?
The GI50 was > 25 µM.

What about the TGI (SK-OV-3 ovarian) of the same compound?
Its TGI is > 25 µM.

What about the GI50 (SN12C renal) of the same compound?
Its GI50 is > 25 µM.

And the TGI (SN12C renal)?
Its TGI is > 25 µM.

And the GI50 (SNB-19 CNS)?
The GI50 was > 25 µM.

What about the TGI (SNB-19 CNS) of the same compound?
The TGI was > 25 µM.

And the GI50 (SNB-75 CNS)?
The GI50 was > 22.3 µM.

What about the TGI (SNB-75 CNS) of the same compound?
Its TGI is > 25 µM.

What about the GI50 (SR leukemia) of the same compound?
Its GI50 is > 25 µM.

What about the TGI (SR leukemia) of the same compound?
Its TGI is > 25 µM.

What about the GI50 (SW-620 colon) of the same compound?
The GI50 was > 25 µM.

What about the TGI (SW-620 colon) of the same compound?
The TGI was > 25 µM.

And the GI50 (T-47D breast)?
Its GI50 is > 25 µM.

What about the TGI (T-47D breast) of the same compound?
Its TGI is > 25 µM.

What about the GI50 (TK-10 renal) of the same compound?
Its GI50 is > 25 µM.

And the TGI (TK-10 renal)?
Its TGI is > 25 µM.

And the GI50 (U251 CNS)?
The GI50 was > 25 µM.

What about the TGI (U251 CNS) of the same compound?
The TGI was > 25 µM.

And the GI50 (UACC-257 melanoma)?
The GI50 was > 25 µM.

And the TGI (UACC-257 melanoma)?
The TGI was > 25 µM.

What about the GI50 (UACC-62 melanoma) of the same compound?
Its GI50 is > 25 µM.

What about the TGI (UACC-62 melanoma) of the same compound?
The TGI was > 25 µM.

What about the GI50 (UO-31 renal) of the same compound?
The GI50 was > 25 µM.

What about the TGI (UO-31 renal) of the same compound?
The TGI was > 25 µM.
